The values below come from ChEMBL document CHEMBL1909046, “DrugMatrix in vitro pharmacology data”.

Structures are written as SMILES.

Data set [1] has as its target Kappa-type opioid receptor (Homo sapiens, UniProt P41145). As to the kind of experiment: DRUGMATRIX: Opiate kappa (OP2, KOP) radioligand binding (ligand: [3H] Diprenorphine). The data set is classed as cell membranes, HEK293, Membrane. The settings on record: hek293; Not Active = under 50% inhibition at 10 µM.
Another data set concerns the target T1, Caspase-1 (Homo sapiens, UniProt P29466).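 Further: Caspase-1 enzyme inhibition assay with a peptide substrate; in other assays of this panel Not Active means under 50% inhibition at 10 µM.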
T1 sequence (P29466 whole entry): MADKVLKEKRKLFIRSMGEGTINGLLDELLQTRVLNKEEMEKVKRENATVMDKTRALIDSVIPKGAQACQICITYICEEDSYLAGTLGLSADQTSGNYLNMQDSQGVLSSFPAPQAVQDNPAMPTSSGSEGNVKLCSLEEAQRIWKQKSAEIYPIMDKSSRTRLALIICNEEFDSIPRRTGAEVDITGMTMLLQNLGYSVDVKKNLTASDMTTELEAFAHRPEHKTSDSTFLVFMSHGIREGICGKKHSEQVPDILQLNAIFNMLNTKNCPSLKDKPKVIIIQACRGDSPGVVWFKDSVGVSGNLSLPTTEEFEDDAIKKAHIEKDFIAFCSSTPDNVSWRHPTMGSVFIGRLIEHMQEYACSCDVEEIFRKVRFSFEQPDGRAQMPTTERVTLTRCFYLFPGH
More on the design: species or system Escherichia coli.

Data set [2] can be described thus: DRUGMATRIX: ATPase, Na+/K+ enzyme inhibition (substrate: ATP). The data set is classed as tissue-based, Sus scrofa, Heart. The settings on record: Not Active = under 50% inhibition at 10 µM.
For another data set, the target named is Carbonic anhydrase 2 (Homo sapiens, UniProt P00918). The data set can be described thus: DRUGMATRIX: Carbonic Anhydrase II enzyme inhibition (substrate: 4-Nitrophenyl acetate (4-NPA)). To be noted: erythrocyte; Not Active = under 50% inhibition at 10 µM. It is filed as tissue-based, Erythrocyte.
For another data set, the target named is T2, Estrogen receptor (Homo sapiens, UniProt P03372). Further: in other assays of this panel Not Active means under 50% inhibition at 10 µM.
T2 sequence (P03372 whole entry): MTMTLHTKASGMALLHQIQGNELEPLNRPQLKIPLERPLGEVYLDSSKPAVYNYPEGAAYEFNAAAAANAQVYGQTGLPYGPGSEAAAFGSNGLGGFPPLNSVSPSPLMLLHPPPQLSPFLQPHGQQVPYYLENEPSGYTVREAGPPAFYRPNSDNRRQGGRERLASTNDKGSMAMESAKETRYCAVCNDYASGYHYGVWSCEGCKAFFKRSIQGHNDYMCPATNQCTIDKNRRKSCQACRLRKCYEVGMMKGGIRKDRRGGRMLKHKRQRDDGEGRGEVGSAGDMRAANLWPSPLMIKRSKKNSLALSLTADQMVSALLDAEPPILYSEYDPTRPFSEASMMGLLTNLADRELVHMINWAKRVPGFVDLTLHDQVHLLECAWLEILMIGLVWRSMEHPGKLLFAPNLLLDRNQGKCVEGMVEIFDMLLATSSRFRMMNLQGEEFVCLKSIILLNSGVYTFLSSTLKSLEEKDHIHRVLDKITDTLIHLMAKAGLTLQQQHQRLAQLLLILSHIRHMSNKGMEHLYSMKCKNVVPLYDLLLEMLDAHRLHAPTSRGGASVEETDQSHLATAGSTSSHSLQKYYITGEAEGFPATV
To be noted: sf9.

The next data set deals with T3, Cytochrome P450 2A6 (Homo sapiens, UniProt P11509).
T3 sequence (P11509 whole entry): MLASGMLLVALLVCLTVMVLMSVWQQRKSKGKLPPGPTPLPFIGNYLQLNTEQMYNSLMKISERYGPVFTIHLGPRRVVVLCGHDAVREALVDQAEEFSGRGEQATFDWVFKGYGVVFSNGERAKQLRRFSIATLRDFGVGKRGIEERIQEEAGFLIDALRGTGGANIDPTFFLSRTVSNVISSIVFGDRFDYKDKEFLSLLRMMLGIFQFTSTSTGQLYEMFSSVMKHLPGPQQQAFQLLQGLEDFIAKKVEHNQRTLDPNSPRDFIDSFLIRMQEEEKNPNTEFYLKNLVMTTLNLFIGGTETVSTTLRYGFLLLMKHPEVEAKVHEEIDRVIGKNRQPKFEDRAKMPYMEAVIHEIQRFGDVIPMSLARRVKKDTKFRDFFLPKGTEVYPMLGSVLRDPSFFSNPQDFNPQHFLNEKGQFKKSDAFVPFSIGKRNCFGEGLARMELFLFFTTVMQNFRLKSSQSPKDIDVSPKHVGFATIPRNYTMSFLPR
To be noted: bti-tn-5b1-4.

Data set [3] has as its target Tyrosine-protein kinase Fyn (Homo sapiens, UniProt P06241). The data set can be described thus: biochemical. It is filed as cell-based, Insect cells.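 Further: enzymatic inhibition of Fyn kinase activity measured with Poly(Glu:Tyr) as the phosphorylation substrate; in other assays of this panel Not Active means under 50% inhibition at 10 µM.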
Data set [4] has as its target T4, Polyunsaturated fatty acid lipoxygenase ALOX15 (Oryctolagus cuniculus, UniProt P12530).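 Further: inhibition of 15-lipoxygenase enzyme activity measured with linoleic acid as the substrate; in other assays of this panel Not Active means under 50% inhibition at 10 µM.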
T4 sequence (P12530 whole entry): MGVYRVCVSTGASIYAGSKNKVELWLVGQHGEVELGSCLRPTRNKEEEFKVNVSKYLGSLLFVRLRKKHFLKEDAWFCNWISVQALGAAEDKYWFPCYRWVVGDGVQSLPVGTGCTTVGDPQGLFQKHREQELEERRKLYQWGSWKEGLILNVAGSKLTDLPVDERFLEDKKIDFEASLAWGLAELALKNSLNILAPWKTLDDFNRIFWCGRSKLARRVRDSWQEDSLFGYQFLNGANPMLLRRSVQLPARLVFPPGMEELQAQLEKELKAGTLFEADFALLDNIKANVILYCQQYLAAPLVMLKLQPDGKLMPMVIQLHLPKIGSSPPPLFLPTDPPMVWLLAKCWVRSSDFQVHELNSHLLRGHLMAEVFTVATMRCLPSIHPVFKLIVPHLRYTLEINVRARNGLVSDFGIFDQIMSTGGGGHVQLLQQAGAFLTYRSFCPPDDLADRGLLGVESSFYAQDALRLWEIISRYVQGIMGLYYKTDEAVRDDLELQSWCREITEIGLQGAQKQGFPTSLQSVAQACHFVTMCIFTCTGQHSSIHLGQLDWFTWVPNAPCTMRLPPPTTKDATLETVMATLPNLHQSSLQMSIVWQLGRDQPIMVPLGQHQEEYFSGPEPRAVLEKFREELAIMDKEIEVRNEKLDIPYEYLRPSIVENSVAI
The data set can be described thus: biochemical. The data set is classed as tissue-based, Reticulocytes. The settings on record: reticulocytes.

Sequence of Tyrosine-protein kinase Fyn (P06241 whole entry): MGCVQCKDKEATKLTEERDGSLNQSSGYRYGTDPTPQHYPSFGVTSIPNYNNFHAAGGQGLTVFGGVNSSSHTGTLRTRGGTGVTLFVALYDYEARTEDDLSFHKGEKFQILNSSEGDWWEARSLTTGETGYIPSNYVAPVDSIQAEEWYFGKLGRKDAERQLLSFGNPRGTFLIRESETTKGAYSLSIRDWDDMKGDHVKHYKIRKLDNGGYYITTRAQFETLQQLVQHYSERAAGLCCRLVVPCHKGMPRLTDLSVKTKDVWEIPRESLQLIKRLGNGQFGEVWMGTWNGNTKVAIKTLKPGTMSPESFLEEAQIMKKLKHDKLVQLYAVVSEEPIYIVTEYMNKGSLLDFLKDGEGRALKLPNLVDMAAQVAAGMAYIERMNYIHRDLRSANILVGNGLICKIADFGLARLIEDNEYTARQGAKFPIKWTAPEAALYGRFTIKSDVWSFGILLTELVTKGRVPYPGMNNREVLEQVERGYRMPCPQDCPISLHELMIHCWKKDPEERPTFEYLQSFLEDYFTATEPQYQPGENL
Sequence of Kappa-type opioid receptor (P41145 whole entry): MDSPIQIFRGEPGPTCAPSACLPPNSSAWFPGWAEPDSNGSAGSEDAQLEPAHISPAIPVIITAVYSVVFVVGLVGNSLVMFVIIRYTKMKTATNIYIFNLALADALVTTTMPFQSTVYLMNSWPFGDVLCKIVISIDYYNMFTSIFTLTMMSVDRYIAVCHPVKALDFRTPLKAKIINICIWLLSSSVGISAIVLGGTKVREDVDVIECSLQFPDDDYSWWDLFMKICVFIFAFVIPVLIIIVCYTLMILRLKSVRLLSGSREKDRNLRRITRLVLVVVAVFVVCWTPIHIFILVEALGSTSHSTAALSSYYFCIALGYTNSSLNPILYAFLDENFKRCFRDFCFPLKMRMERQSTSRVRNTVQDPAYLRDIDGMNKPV

In the case of `C1CCC(C(CC2CCCCN2)C2CCCCC2)CC1` (stereo not given) [PERHEXILINE], the IC50 entry (in data set [1]; against Caspase-1; in data set [2]; on Carbonic anhydrase 2; on Estrogen receptor; at Cytochrome P450 2A6) was “Not Active” each time. Besides, the IC50 (in general, the concentration that gives 50% inhibition) in data set [3] (read-out: IC50) was 4.06 µM; in data set [4] it was “Not Active”. Further, the Ki entry (in data set [2]; at Cytochrome P450 2A6) was “Not Active” throughout.
With `CCOc1ccc(NC(C)=O)cc1` [PHENACETIN], the IC50 result (in data set [1]; at Caspase-1; in data set [2]; at Carbonic anhydrase 2; against Estrogen receptor; against Cytochrome P450 2A6) was “Not Active” each time. For the same compound, the IC50 result in data set [3] (insect cells) and in data set [4] was “Not Active” in each case. Besides, the Ki entry (in data set [2]; at Cytochrome P450 2A6) was “Not Active” throughout.
`Cc1ccc(N(CC2=NCCN2)c2cccc(O)c2)cc1` [PHENTOLAMINE]: the half-maximal inhibitory concentration (IC50) entry (in data set [1]; against Caspase-1; in data set [2]; against Carbonic anhydrase 2; at Estrogen receptor; at Cytochrome P450 2A6) was “Not Active” throughout. Besides, the IC50 result in data set [3] (insect cells) and in data set [4] was “Not Active” each time. Further, the Ki result (in data set [2]; at Cytochrome P450 2A6) was “Not Active” each time.
With `CC(O)CO` (stereo not given) [PROPYLENE GLYCOL], the IC50 entry (in data set [1]; on Caspase-1; in data set [2]; at Carbonic anhydrase 2; against Estrogen receptor; against Cytochrome P450 2A6) was “Not Active” in each case. The IC50 entry in data set [3] (insect cells) and in data set [4] was “Not Active” in each case. The Ki result (in data set [2]; on Cytochrome P450 2A6) was “Not Active” throughout.
